Experimental data reported in patent US10722528B2, “Compositions and methods for inhibiting metastasis” (Augusta University Research Institute, Inc., priority 2018, dated 2020).

Columns and labels:
T cell proliferation = experiment: In vitro suppression: bone marrow cells treated with recombinant protein plus GM-CSF, then co-incubated with activated CFSE labeled T cells; type: cell-based, mouse; conditions: 7 days, then 3 days with activated CFSE labeled T cells
Procedure: (§1) In vitro suppression: Multigrams of recombinant Calprotectin, S100A8 and S100A9 proteins were isolated, purified and confirmed for their activity with commercially available proteins. Bone marrow cells were treated with recombinant S100A8 (A8), S100A(9) or Calprotectin (CALP) in presence of GM-CSF (Granulocyte Macrophage-Colony Stimulating Factor Protein) in vitro for 7 days for gMDSC differentiation. The cells were then co-mixed and incubated 3 more days with activated CFSE labeled T cells.
as §1, with “Multigrams” for “In vitro suppression: Multigrams”, “recombinant S10A8” for “recombinant S100A8”, “(Granulocyte Macrophage—Colony” for “(Granulocyte Macrophage-Colony”

EMT6-Luc tumor = experiment: In vivo gMDSC induction: EMT6-Luc tumor model in BALB/c mice injected with recombinant protein; parameters: species or system mouse; conditions: for tumor cell killing activity of T cells from treated mice (annexin V+ cells): compared to control treated mice; for levels of caspase 3 mediated apoptosis: treated mice versus saline
Procedure: (§2) In vivo gMDSC induction: EMT6 tumor model was selected as platform to examine the role of the proteins in regulation gMDSCs and the resultant metastatic cascade. EMT6-Luc cells were implanted into the mammary fat pads of BALB/c mice (purchased from Charles Rivers at NCI). The mice were then injected (via tail vein) either with saline (control), recombinant S100A9 or Calprotectin (100 ng/mouse) every alternate day for three weeks.
as §2, with “EMT6” for “In vivo gMDSC induction: EMT6”

[1] = test system: gMDSC differentiation in bone marrow cells; experiment: In vitro screening of gMDSC differentiation in bone marrow cells (GM-CSF/G-CSF, flow cytometry); type: cell-based, mouse; conditions: GM-CSF, 3 days, flow cytometry (Ly6c+Ly6g+CD11b+)
Procedure: BALB/c mice were euthanized by CO2 asphyxiation. The femur bones were carefully resected under sterile conditions, cleaned to remove the attached muscle/tissue, and cleaned with 70% ethanol. The bones were then transferred on to a sterile Petri dish with culture medium Roswell Park Memorial Institute (RPMI)-1640. Both ends of femurs were carefully trimmed using sterile, sharp scissors to expose the interior marrow shaft. The contents of marrow were flushed with 2-4 ml of culture medium (RPMI-1640 supplemented with 10% FBS) using 1-ml insulin syringe with a 29G×½ needle. Later, the bone marrow was flushed out onto a 70 μm nylon cell strainer placed in a 50 ml Falcon conical tube (The bones should appear white once all the marrow has been expelled out completely). The collected BM cell suspension was further diluted with 20 ml of phosphate buffer saline (PBS), and the cell suspension was centrifuged at 1,000 rpm […]. The supernatant and the cell pellet were collected using red blood cell (RBC) lysis buffer and incubated for 5 minutes. 5-10 mL of PBS was added, and the solution was centrifuged at 1,000 rpm for 5 minutes. The supernatant was discarded and the cell pellet was washed with PBS, and re-centrifuged at 1,000 rpm for 5 minutes. The cells were re-suspended with RPMI medium containing 10% FBS and used for assays or culture.
Computational screening of certain select NCI chemical library was performed again the crystal structure of calprotectin. 40 lead compounds were identified with potential to bind to calprotectin and suppress gMDSC differentiation. In vitro screening using the 40 lead compounds was performed. Bone marrow cells were counted using hemocytometer or Beckman Z2 coulter counter and suspended in culture medium (RPMI 1640+10% FBS+1% penicillin/streptomycin) to achieve a final cell density of 2×10^6 BM cells/well. T20 ng/mL of recombinant mouse GM-CSF (Granulocyte Macrophage—Colony Stimulating Factor Protein) was added followed by 50 ng/mL G-CSF or individual selected drug. […]

4T1 tumor = experiment: Metastatic 4T1-injected mice treated with drug #10 (bioluminescence imaging, MDSC infiltration); type: in vivo, mouse
Text: FIG. 14A-14D are bioluminescence images of metastatic 4T1-injected mice untreated or treated with drug #10. FIG. 14E-14H are bar graphs showing the extent of mMDSC infiltration in the primary tumor (FIG. 14H) and the BM (FIG. 14E), spleen (FIG. 14F), and lung (FIG. 14G) of metastatic 4T1-injected mice untreated (black bars) or treated with drug #10 (gray bars). FIG. 14I-14L are bar graphs showing the extent of gMDSC infiltration in the primary tumor (FIG. 14L) and the BM (FIG. 14I), spleen (FIG. 14J), and lung (FIG. 14K) of metastatic 4T1-injected mice untreated (black bars) or treated with drug #10 (gray bars).
Luciferase expressing 4T1 or EMT6 murine breast cancer cells (50,000 cells per mice) were orthotopically implanted into the fat pads of 5-week-old BALB/c mice. (AT-3 cells in C57BL/J6 mice) and these mice were imaged utilizing the Caliper IVIS imaging systems. To analyse MDSCs, tumor-bearing mice were sacrificed every week and single-cell suspensions were prepared from bone marrows, spleens, lungs and tumor tissues. Bone marrow cells were obtained by flushing bones with PBS using a 28G 1/2 syringe. […]
These cells were labeled with fluorescence-conjugated Ly6C (#128015-dilution 1/400), Ly6G (#127605-dilution 1/100) and CD11b (#101208-Dilution 1/200) antibodies (Biolegend) and analyzed on a FACS canto flow cytometer (BD Biosciences).

[2] = test system: MDSC-related genes in bone marrow cells; experiment: Expression of MDSC-related genes in bone marrow cells treated with GCSF and compound; type: cell-based, mouse
Text: FIG. 13A is a bar graph showing Ly6c+Ly6g+CD11b+gMDSCs differentiation in vitro in bone marrow cells treated with GCSF and the lead NCI compounds identified by computational screen against S100A8/A9 (calprotectin). FIGS. 13B-13K are representative flow cytometry plots showing the expression of CD11b and Ly6C in bone marrow cells treated with compounds 4, 10, 13, and 15. FIGS. 13L-13R are bar graphs showing the expression of MDSC-related genes (S100A8, FIG. 13L; S100A9, FIG. 13M; GCSF, FIG. 13N; IL1A, FIG. 13O; NOS2, FIG. 13P; CYB1, FIG. 13Q; and IL4R, FIG. 13R) in bone marrow cells treated with GCSF (black bars), GCSF+#4 (dark gray bars), GCSF+#10 (light gray bars), or untreated (white bars).
P values<0.05 were considered statistically significant.

EMT6 cells = test system: EMT6 cells
Procedure: (§3) FIGS. 5A-5D are bar graphs showing expression of IL6 (FIG. 5A), IL1A (FIG. 5B), TGFB (FIG. 5C), and Vimentin (FIG. 5D) in EMT6 cells (white bars), EMT6 cells+0.5 mM DPTA (gray bars), and EMT6 cells+2.5 mM DPTA (black bars). FIG. 5E-5H are bar graphs showing expression of IL6 (FIG. 5E), IL1A (FIG. 5F), TGFB (FIG. 5G), and Vimentin (FIG. 5H) in EMT6 cells (white bars), EMT6 cells+mMDSCs (gray bars), and EMT6 cells+mMDSCs/1400W (black bar). FIG. 5I is a representative Western blot showing pSTAT3, STAT3, pSTAT1, STAT1, Vimentin, Twist, and actin expression in untreated EMT6 cell, or EMT6 cells treated with 0.5 mM or 2.5 mM DPTA, mMDSCs, or mMDSCs+1400W.
(§4) For RT-PCR analyses, KiCqStart SYBR Green predesigned primers (Sigma) were used for the following genes: […]
(§5) The relative fold change was measured by 2-ΔΔCt formula compared to the control cells. Means and differences of the means with 95% confidence intervals were obtained using GraphPad Prism (GraphPad Software Inc.). Two-tailed Student's t-test was used for unpaired analysis comparing average expression between conditions. P values<0.05 were considered statistically significant.

[3] = test system: EMT6 cells co-cultured with mMDSCs; experiment: EMT6 cells co-cultured with mMDSCs and NOS2 inhibitor 1400W (qPCR, Western blot); type: cell-based, mouse
Procedure: as §3, §4, §5

[4] = 100 ng/mouse via tail vein every alternate day for three weeks

Calprotectin: recombinant complex of the mammalian proteins S100A8 and S100A9
suppression of T cell proliferation by protein treated gMDSCs (T cell proliferation): suppressed T cell proliferation more efficiently compared to S100A9
CD8+ T cells (EMT6-Luc tumor; [4]): increase in CD8+ T cells
primary tumor growth and spontaneous metastasis (EMT6-Luc tumor; [4]): enhanced primary tumor growth and spontaneous metastasis to the lungs and liver
tumor cell killing activity of T cells from treated mice (annexin V+ cells) (EMT6-Luc tumor): significantly suppressed the tumor cell killing activity
levels of caspase 3 mediated apoptosis (EMT6-Luc tumor): reduced

O=[N+]([O-])C1C(c2ccccc2)C12c1ccccc1-c1ccccc12 (stereo not shown) [compound 27]
inhibition of gMDSC differentiation [1]: significant inhibition of gMDSC differentiation

CC12CCC3C(CCC4Cc5[nH]c6ccccc6c5CC43C)C1CCC2O (stereo not shown) [compound 10, 12a,14a-dimethyl-1,2,3,3a,3b,4,5,5a,6,7,12,12a,12b,13,14,14a-hexadecahydrocyclopenta[5,6]naphtho[2,1-b]carbazol-1-ol]
tumor growth and metastasis (4T1 tumor; bioluminescence images): suppresses tumor growth and metastasis
gMDSC infiltration into the tumor and distant organ sites (4T1 tumor; primary tumor, BM, spleen, lung): reduce gMDSC infiltration
inhibition of gMDSC differentiation [1]: significant inhibition of gMDSC differentiation
expression of MDSC-related genes S100A8, S100S9, GCSF, IL1A, NOS2, CYBB1, and IL4R [2]: reduced the expression

NCCCN(CCCN)/[N+]([O-])=N/O [DPTA]
expression of IL1A, IL6, TGFB1 and VIM (qPCR) (EMT6 cells; 0.5 mM and 2.5 mM DPTA): induced the expressions of indicated genes
activation of pStat1 and pStat3 signaling pathways and protein levels of EMT markers vimentin and twist (Western blot) (EMT6 cells; 0.5 mM or 2.5 mM DPTA): induced the activation of pStat1 and pStat3 signaling pathways and protein levels of EMT markers

O=C1c2cccc(Oc3ccccc3)c2C(=O)c2cccc(Oc3ccccc3)c21 [compound 4, 1,5-diphenoxyanthracen-9-10-dione]
inhibition of gMDSC differentiation [1]: significant inhibition of gMDSC differentiation
expression of MDSC-related genes S100A8, S100S9, GCSF, IL1A, NOS2, CYBB1, and IL4R [2]: reduced the expression

S100A9: recombinant S100A9 protein, subunit of calprotectin
tumor cell killing activity of T cells from treated mice (annexin V+ cells) (EMT6-Luc tumor): moderate activity
levels of caspase 3 mediated apoptosis (EMT6-Luc tumor): reduced

CC(=N)NCc1cccc(CN)c1 [1400 W]
activation of pStat1 and pStat3 pathways and EMT markers vimentin and twist (Western blot) [3]: suppressed the activation of the latter pathways and EMT markers
mMDSC-induced transcription of IL1A, IL6, TGFB1 and VIM (qPCR) [3]: suppress the mMDSC-induced transcription of these genes

B1: S100A8: recombinant S100A8 protein, subunit of calprotectin (protein, UniProt P05109 1-93, looked up)
Protein S100-A8: MLTELEKALNSIIDVYHKYSLIKGNFHAVYRDDLKKLLETECPQYIRKKGADVWFKELDINTDGAVNFQEFLILVIKMGVAAHKKSHEESHKE
suppression of T cell proliferation by protein treated gMDSCs (T cell proliferation): no significant effect
